Source: patent publication US12377087B2, “Compounds for the treatment of cancer” (UNIVERSITY OF LOUISVILLE RESEARCH FOUNDATION, INC., priority 2015, dated 2025)

Assays:
PFK-1 = assay: kinase activity of PFK-1; format: biochemical; settings: 10 μM
H460 cells [1] = assay: Glycolysis assay (3H2O from 5-[3H]glucose) in H460 cells; format: cell-based, human; settings: H460, 10 μM 5MPN, 6-72 hours
Procedure: Cells growing in 6-well plates were incubated in 500 μl of complete medium containing 1 μCi of 5-[^3H]glucose per well for 60 min in 5% CO2 at 37° C. Media was collected, ^3H2O formed via glycolysis from the 5-[^3H]glucose measured and counts normalized as previously described. For example, the medium was then collected and centrifuged to pellet any suspended cells. To separate the ^3H2O formed via glycolysis from the 5-[^3H]glucose added to the medium, an evaporation technique in a sealed system was utilized. Briefly, 150 μl aliquots of medium were added to open tubes that were placed upright inside scintillation vials containing 1 ml of H2O. The scintillation vials were sealed, and the ^3H2O produced by glycolysis through enolase and released to the medium was allowed to equilibrate with the H2O in the outer vial for 48 h at 37° C. The amounts of ^3H2O that had diffused into the surrounding H2O was measured on a Tri-Carb 2910 liquid scintillation analyzer (Perkin Elmer) and compared with ^3H2O and 5-[^3H]glucose standards. Protein concentration was determined using the BCA assay and counts were normalized to protein concentration. All data are expressed as the mean±SD of three experiments. Statistical significance was assessed by the two-sample t test (independent variable).

H1299 = assay: viable cell count of H1299 cells; format: cell-based; settings: H1299, 48 hours
Procedure: (§1) Cell Viability: Cells were incubated in 20% trypan blue (Sigma) for 5 minutes. Cells excluding trypan blue were counted using a standard hemocytometer (Hausser Scientific) to determine total numbers of viable cells. Data are expressed as mean±SD of three experiments.

MDA-MB-231 = assay: viable cell count of MDA-MB-231 cells; format: cell-based; settings: MDA-MB-231, 48 hours
Procedure: as §1

NHBE cells = assay: viable cell count of normal human bronchial epithelial cells; format: cell-based; settings: 48 hours
From the text: (§2) Cell lines and cell culture: H460, H1299, H441, H522 and A549 non-small cell lung cancer (NSCLC), MDA-MB-231 (breast), LNCaP (prostatic) and HCT116 (colon) adenocarcinoma and Lewis lung carcinoma (LLC) cell lines were obtained from ATCC and used within 6 months of acquisition, PFKFB4^7 ear pinna Fibroblasts isolated from TamCre/loxP/PFKFB4^−/− mice were immortalized as described previously (Chesney J et al. Fructose-2,6-bisphosphate synthesis by 6-phosphofructo-2-kinase/fructose-2,6-bisphosphatase 4 (PFKFB4) is required for the glycolytic response to hypoxia and tumor growth. Oncotarget 2014 Aug. 30; 5(16):6670-86). Normal bronchial epithelial cells (NHBE) were obtained from Lonza and NHBE cells expressing telomerase, SV40 large T antigen and activated Ras (hT/LT/Ras) were a gift from Dr. B. J. Rollins, Dana Farber Cancer Institute. All cell lines were tested and found negative for mycoplasma (PCR Mycoplasma Detection Kit, ABM). […]
as §1

[2] = tested on: PFKFB4−/− lung fibroblasts; assay: cell counts of tamoxifen-inducible PFKFB4-/- lung fibroblasts; format: cell-based, mice; settings: 4HT-induced deletion, 10 μM 5MPN, 24 hours
From the text: as §2, §1

H460 cells [3] = assay: apoptosis by flow cytometry (annexin V / propidium iodide) in H460 cells; format: cell-based, human; settings: H460, 10 μM 5MPN
Procedure: Flow Cytometry: To measure apoptosis, cells were stained with annexin V and propidium iodide and examined as previously described. […] DMSO used as vehicle. For cell cycle experiments, cells were detached, washed with cold PBS and fixed in 70% ethanol (4° C. 30 minutes). The cells then were pelleted by centrifugation, resuspended in PBS containing PI and RNase A, incubated at 37° C. in the dark for 30 minutes and analyzed by flow cytometry (BD FACSCalibur). Data were analyzed using FlowJo software (TREE STAR Inc.). Results were calculated as the mean±SD of three experiments.

Lewis lung carcinomas = assay: Lewis lung carcinoma tumor growth in mice; format: in vivo, C57BL/6 mice
LLC xenografts [4] = assay: intratumoral F2,6BP in LLC xenografts; format: in vivo, C57BL/6 mice; settings: 120 mg/kg by gavage daily, 10 days
Procedure: F2,6BP measurements: Cells or tissues were prepared as previously described and F2,6BP content measured using a coupled enzyme reaction following the method of Van Schaftingen et at (Van Schaftingen E et al. A kinetic study of pyrophosphate: fructose-6-phosphate phosphotransferase from potato tubers. Application to a microassay of fructose 2,6-bisphosphate. Eur J Biochem 1982 December; 129(1): 191-5) and normalized to total cellular protein measured by the bicinchoninic acid assay (BCA, Thermo Scientific). […] In order to measure F2,6BP, cells were harvested, washed with PBS, lysed in NaOH/Tris acetate by heating at 80° C. and lysates neutralized to pH 7.2. F2,6BP content was measured using a coupled enzyme reaction following the method of Van Schaftingen et al (Eur J Biochem. 1982; 129(1): 191-195). The F2,6BP concentration was normalized to total cellular protein measured by the bicinchoninic acid assay (BCA, Thermo Scientific) All data are expressed as the mean±SD of three experiments. Statistical significance was assessed by the two-sample t test (independent variable).
At the end of the experiment, animals were euthanized, tumors removed and sections fixed in 10% formaldehyde for immunohistochemistry or snap-frozen in liquid nitrogen for analyses. […]

LLC xenografts [5] = assay: Ki67 immunohistochemistry of LLC xenografts; format: in vivo, C57BL/6 mice; settings: 120 mg/kg by gavage daily, two weeks
Procedure: Immunohistochemistry: Formalin-fixed, paraffin-embedded tissue sections were processed as previously described then incubated with anti-Ki-67 primary antibody (Abeam) overnight, followed by HRP-linked goat anti-rabbit secondary antibody (1:300. Pierce). Sections were developed with 3,3′-diaminobenzidine tetrahydrochloride, counterstained, scanned and analyzed with the positive pixel count algorithm as previously described. Data are depicted as % positive pixels/total pixels±SD.

## COc1cccc2c(NCCCCCO[N+](=O)[O-])ccnc12 [5MPN, 5-[(8-methoxyquinolin-4-yl)amino]pentyl nitrate]
PFK-1
  inhibition of PFK-1 kinase activity: no inhibition of kinase activity
H460 cells [1]
  glycolysis: reduced
H1299
  growth, viable cells: dose-dependent reduction in growth
MDA-MB-231
  growth, viable cells: dose-dependent reduction in growth
NHBE cells
  cell growth, live cells: virtually unaffected
[2]
  anti-proliferative effect with genomic deletion of Pfkfb4: sensitized
H460 cells [3]
  apoptotic cells: minimal increase
Lewis lung carcinomas; LLC-bearing C57BL/6 mice, 120 mg/kg oral daily
  body weight: without affecting body weight
Lewis lung carcinomas; syngeneic C57BL/6 mice, 120 mg/kg daily by gavage, two weeks
  tumor growth of Lewis lung carcinomas: suppressed the growth
LLC xenografts [4]
  intratumoral F2,6BP: marked reduction
LLC xenografts [5]
  Ki67-positive cells in LLC xenografts: reduction in Ki67-positive cells
